Measured values reported in the NIST ThermoML archive (doi:10.1016/j.jct.2005.04.005).
± gives the expanded uncertainty stated by the source. Each block holds one compound with its values, some of them ahead of it.

What was measured:
[1] = mn = molality of the nth substance listed, in mol/kg; conditions: 101 kPa, Liquid
[2] = 298.15 K; 101 kPa; Liquid

Structure (SMILES): C1COCCOCCOCCOCCOCCO1 [1,4,7,10,13,16-hexaoxacyclooctadecane] + ClC(Cl)(Cl)Cl
mass density ([1]; 298.15 K, m1 = 0.0896): 1569.55 ± 2.1 kg/m3
speed of sound ([1]; 298.15 K, m1 = 0.0896): 932.5 ± 1.7 m/s
mass density ([1]; 298.15 K, m1 = 0.1666): 1557.54 ± 2.1 kg/m3
speed of sound ([1]; 298.15 K, m1 = 0.1666): 941.9 ± 1.7 m/s
mass density ([1]; 298.15 K, m1 = 0.3643): 1529.41 ± 2 kg/m3
speed of sound ([1]; 298.15 K, m1 = 0.3643): 965.4 ± 1.8 m/s
mass density ([1]; 298.15 K, m1 = 0.5719): 1503.47 ± 1.9 kg/m3
speed of sound ([1]; 298.15 K, m1 = 0.5719): 989.2 ± 1.8 m/s
mass density ([1]; 298.15 K, m1 = 0.8185): 1476.37 ± 1.8 kg/m3
speed of sound ([1]; 298.15 K, m1 = 0.8185): 1015.6 ± 1.8 m/s
mass density ([1]; 298.15 K, m1 = 1.013): 1457.02 ± 1.8 kg/m3
speed of sound ([1]; 298.15 K, m1 = 1.013): 1034.2 ± 1.8 m/s

Structure (SMILES): ClC(Cl)(Cl)Cl [tetrachloromethane]
mass density [2]: 1584.35 ± 2.2 kg/m3
speed of sound [2]: 921.5 ± 1.7 m/s

Structure (SMILES): ClC(Cl)(Cl)Cl [tetrachloromethane] + C1COCCOCCOCCOCCOCCO1
mass density ([1]; 298.15 K, m2 = 0): 1584.35 ± 2.2 kg/m3
speed of sound ([1]; 298.15 K, m2 = 0): 921.5 ± 1.7 m/s

mass density ([1]; 295.15 K, m2 = 0): 997.773 ± 0.6 kg/m3
mass density ([1]; 297.15 K, m2 = 0): 997.299 ± 0.6 kg/m3
mass density ([1]; 299.15 K, m2 = 0): 996.786 ± 0.6 kg/m3
mass density ([1]; 301.15 K, m2 = 0): 996.236 ± 0.61 kg/m3
Structure (SMILES): O [water] + C1COCCOCCOCCOCCOCCO1
